Test results: patent publication US20220249487A1, “QUINAZOLINYL COMPOUNDS AND METHODS OF USE” (Genentech, Inc., priority 2019, published 2022)
pIC50: −log10 of the molar value. Structures can show the parent of a compound that is named as a salt.

These compounds were tested against T1, IRE1α (Homo sapiens, UniProt O75460, D688N) (assay: IRE1α TR-FRET competition binding assay (HTRF)). Settings: His-tagged IRE1α kinase dead construct (KR, AA G547-L977, D688N); Alexa fluor 647-labeled ATP competitive probe 2 nM; read-out: IRE1α (alpha) HTRF (IC50).
T1 construct: containing the kinase and RNase domains (KR, AA G547-L977, D688N); made in house; host or cells: Sf9 insect cells
Procedure: To determine the affinity of compound binding to the kinase domain of IRE1α, a time-resolved fluorescence resonance energy transfer (TR-FRET) competition assay was used.
A His-tagged IRE1α kinase dead construct containing the kinase and RNase domains (KR, AA G547-L977, D688N) was expressed in Sf9 insect cells. The purified protein (final concentration 0.25 nM) was pre-incubated with anti-His Europium labeled antibody (Life Technologies PV5596, final concentration 2 nM) for one hour at 4° C. in TR-FRET Assay Buffer (50 mM HEPES, pH 7.5, 10 mM MgCl2, 0.083 mM Brij 35, 1 mM DTT, and 0.1% bovine gamma globulin) prior to addition to test compounds. An Alexa fluor 647-labeled probe based on an ATP competitive inhibitor was added to a final concentration of 2 nM. Reactions were carried out for one hour at room temperature in a final volume of 20 μL in 384 well white ProxiPlates (Perkin Elmer 6008289). Binding of the probe to the IRE1α protein was detected in an Envision instrument (PerkinElmer) equipped with a TRF laser option and a LANCE/Delfia Dual/Bias D400/D630 mirror (Ex 347 nm, 1st Em 665 nm, 2nd Em 615 nm).

T1 sequence (O75460 547-977 D688N): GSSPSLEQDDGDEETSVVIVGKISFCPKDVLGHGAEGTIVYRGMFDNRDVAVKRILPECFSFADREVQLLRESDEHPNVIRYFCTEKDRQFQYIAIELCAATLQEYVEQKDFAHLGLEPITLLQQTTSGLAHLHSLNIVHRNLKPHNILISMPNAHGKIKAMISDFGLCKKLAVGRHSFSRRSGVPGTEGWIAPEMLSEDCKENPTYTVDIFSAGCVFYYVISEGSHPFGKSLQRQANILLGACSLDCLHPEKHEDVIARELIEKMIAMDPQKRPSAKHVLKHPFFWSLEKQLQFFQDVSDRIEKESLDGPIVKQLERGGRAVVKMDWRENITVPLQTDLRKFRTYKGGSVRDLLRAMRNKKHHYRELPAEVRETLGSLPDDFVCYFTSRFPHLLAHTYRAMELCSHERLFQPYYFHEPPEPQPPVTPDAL

| SMILES | pIC50 |
| --- | --- |
| O=S(=O)(Cc1ccccc1)Nc1ccc(-c2ccc3nc(N[C@H]4CCCNC4)ncc3c2)c(F)c1F [Compound 1001, (S)—N-(2,3-Difluoro-4-(2-(piperidin-3-ylamino)quinazolin-6-yl)phenyl)-1-phenylmethanesulfonamide] | 9.24 |
| O=S(=O)(CCC(F)(F)F)Nc1ccc(-c2ccc3nc(N[C@H]4CCCNC4)ncc3c2)c(F)c1F [Compound 1002, (S)—N-(2,3-Difluoro-4-(2-(piperidin-3-ylamino)quinazolin-6-yl)phenyl)-3,3,3-trifluoropropane-1-sulfonamide] | 8.12 |
| O=S(=O)(Cc1ccccc1)Nc1c(F)cc(-c2ccc3nc(N[C@H]4CCCNC4)ncc3c2)c(F)c1F [Compound 1003, (S)-1-Phenyl-N-(2,3,6-trifluoro-4-(2-(piperidin-3-ylamino)quinazolin-6-yl)phenyl)methanesulfonamide] | 9.19 |
| O=S(=O)(Cc1ccccc1)Nc1ccc(F)c(-c2ccc3nc(N[C@H]4CCCNC4)ncc3c2)c1F [Compound 1004, (S)—N-(2,4-Difluoro-3-(2-(piperidin-3-ylamino)quinazolin-6-yl)phenyl)-1-phenylmethanesulfonamide] | 6.82 |
| O=S(=O)(Cc1ccccc1)Nc1ccc(F)c(-c2ccc3nc(N[C@H]4CCCNC4)ncc3c2)c1 [Compound 1005, (S)—N-(4-Fluoro-3-(2-(piperidin-3-ylamino)quinazolin-6-yl)phenyl)-1-phenylmethanesulfonamide] | 7.10 |
| O=S(=O)(Cc1ccccc1)Nc1cccc(-c2ccc3nc(N[C@H]4CCCNC4)ncc3c2)c1F [Compound 1006, (S)—N-(2-Fluoro-3-(2-(piperidin-3-ylamino)quinazolin-6-yl)phenyl)-1-phenylmethanesulfonamide] | 7.00 |
| CCC(F)(F)CS(=O)(=O)Nc1ccc(-c2ccc3nc(N[C@H]4CCCNC4)ncc3c2)c(F)c1F [Compound 1007, (S)—N-(2,3-Difluoro-4-(2-(piperidin-3-ylamino)quinazolin-6-yl)phenyl)-2,2-difluorobutane-1-sulfonamide] | 8.54 |
| O=S(=O)(Cc1ccccc1)Nc1ccc(Cl)c(-c2ccc3nc(N[C@H]4CCCNC4)ncc3c2)c1F [Compound 1008, (S)—N-(4-Chloro-2-fluoro-3-(2-(piperidin-3-ylamino)quinazolin-6-yl)phenyl)-1-phenylmethanesulfonamide] | 7.52 |
| Cc1cc(NS(=O)(=O)Cc2ccccc2)c(F)c(F)c1-c1ccc2nc(N[C@H]3CCCNC3)ncc2c1 [Compound 1009, (S)—N-(2,3-Difluoro-5-methyl-4-(2-(piperidin-3-ylamino)quinazolin-6-yl)phenyl)-1-phenylmethanesulfonamide] | 8.31 |
| O=S(=O)(Cc1ccccc1)Nc1ccc(-c2ccc3nc(N[C@H]4CCCNC4)ncc3c2)cc1F [Compound 1010, (S)—N-(2-Fluoro-4-(2-(piperidin-3-ylamino)quinazolin-6-yl)phenyl)-1-phenylmethanesulfonamide] | 7.96 |
| O=S(=O)(Cc1ccccc1)Nc1c(F)cc(-c2ccc3nc(N[C@H]4CCCNC4)ncc3c2)cc1F [Compound 1011, (S)—N-(2,6-Difluoro-4-(2-(piperidin-3-ylamino)quinazolin-6-yl)phenyl)-1-phenylmethanesulfonamide] | 9.28 |
| O=S(=O)(Cc1ccccc1)Nc1ccc(-c2ccc3nc(N[C@H]4CCCNC4)ncc3c2F)c(F)c1F [Compound 1012, (S)—N-(2,3-Difluoro-4-(5-fluoro-2-(piperidin-3-ylamino)quinazolin-6-yl)phenyl)-1-phenylmethanesulfonamide] | 7.82 |
| O=S(=O)(Cc1ccccc1)Nc1c(F)cc(-c2ccc3nc(N[C@@H]4CNC[C@@H](F)C4)ncc3c2)cc1F [Compound 1013, N-(2,6-Difluoro-4-(2-(((3S,5S)-5-fluoropiperidin-3-yl)amino)quinazolin-6-yl)phenyl)-1-phenylmethanesulfonamide] | 9.29 |
| O=S(=O)(Cc1ccccc1)Nc1cc(F)c(-c2ccc3nc(N[C@H]4CCCNC4)ncc3c2)c(F)c1F [Compound 1014, (S)-1-Phenyl-N-(2,3,5-trifluoro-4-(2-(piperidin-3-ylamino)quinazolin-6-yl)phenyl)methanesulfonamide hydrochloride] | 8.68 |
| O=S(=O)(Cc1ccccc1)Nc1ccc(-c2cc3cnc(N[C@H]4CCCNC4)nc3cc2F)c(F)c1F [Compound 1015, (S)—N-(2,3-Difluoro-4-(7-fluoro-2-(piperidin-3-ylamino)quinazolin-6-yl)phenyl)-1-phenylmethanesulfonamide] | 8.51 |
| CCc1cc(-c2ccc(NS(=O)(=O)Cc3ccccc3)cc2F)cc2cnc(N[C@@H]3CNC[C@@H](F)C3)nc12 [Compound 1016, N-(4-(8-Ethyl-2-(((3S,5S)-5-fluoropiperidin-3-yl)amino)quinazolin-6-yl)-3-fluorophenyl)-1-phenylmethanesulfonamide Formate] | 9.34 |
| CCc1cc(-c2ccc(NS(=O)(=O)Cc3ccccc3)c(F)c2)cc2cnc(N[C@@H]3CNC[C@@H](F)C3)nc12 [Compound 1017, N-(4-(8-Ethyl-2-(((3S,5S)-5-fluoropiperidin-3-yl)amino)quinazolin-6-yl)-2-fluorophenyl)-1-phenylmethanesulfonamide] | 9.74 |
| CCc1cc(-c2ccc(NS(=O)(=O)CCC(F)(F)F)c(F)c2)cc2cnc(N[C@H]3CC[C@H](N(C)C)CC3)nc12 [Compound 1018, N-(4-(2-(((1,4-trans)-4-(Dimethylamino)cyclohexyl)amino)-8-ethylquinazolin-6-yl)-2-fluorophenyl)-3,3,3-trifluoropropane-1-sulfonamide] | 9.60 |
